Reference: patent US8835433B2, “Optically pure diastereomers of 10-Propargyl-10-deazaaminopterin and methods of using same for the treatment of cancer” (Allos Therapeutics, Inc., priority 2010, dated 2014)
pIC50: −log10 of the molar value. Where two headings read alike, the source gives them in different places.

Legend:
[1] = Pharmacokinetics in human (PDX-008, noncompartmental); assay type: in vivo; details: for Vd / clearance / half-life: human, plasma, intravenous; for half-life: read-out: t1/2 term
Experimental: Bioanalytical methods were developed and validated for quantitation of the 2 pralatrexate C10 diastereomers (PDX-10a and PDX-10b) in human, rat and dog plasma and urine. The basic bioanalytical method involves extraction of PDX-10a and PDX-10b from the matrix utilizing C18 solid-phase extraction (SPE) cartridges followed by derivatization (methylation with acetyl chloride) of the diastereomers for separation detection. The derivatized extracts are injected on a chiral high-performance liquid chromatography (HPLC) column for quantitation of each diastereomer by liquid chromatography-tandem mass spectrometry (LC/MS/MS). The lower limit of quantitation (LLOQ) for both diastereomers in plasma and urine matrices was 0.5 ng/mL.
In humans, PDX-10b clearance was approximately 50% lower for both renal clearance (CLren) and nonrenal clearance (CLnonren). The lower clearance and ˜2-fold lower volume of distribution at steady state (Vdss) of PDX-10b are likely responsible for the 2-fold higher plasma exposure of PDX-10b compared with PDX-10a that is observed in humans. However, the plasma concentration-time profiles for both diastereomers declined in parallel, and terminal elimination half-life (t1/2term) for both diastereomers was virtually identical. The biological cause for the observed stereoselectivity across species is unknown, but may be due to isomeric differences in plasma protein binding. Isomeric differences in tissue distribution and/or renal and hepatobiliary transport may contribute as well.

[2] = tested on: Type II collagen arthritis; assay: Type II collagen arthritis mouse model; assay type: in vivo; details: DBA/1 mice, some / other components/aspects of the arthritis, Example 7
Experimental: The study uses a mouse model of inflammatory disease that occurs in response to an antigenic challenge with Type II collagen according to method described in Nature, 283, 666-668 […]. DBA/1 mice are immunized with a suspension of fetal bovine Type II collagen (1 mg/ml) prepared in complete Freund's adjuvant. The primary injection is given using 0.1 ml of the collagen emulsion giving a total of 0.1 mg of Type II collagen per mouse. The animals are given a booster injection of Type II collagen (100 μg in 0.01M acetic acid) on day 21 by intraperitoneal injection.
The effect of methotrexate and test compounds racemic PDX, PDX-10a and PDX-10b on the extent of inflammation is determined by visual observation and by direct analysis of paw swelling using caliper measurements.

[3] = tested on: NCI-H460 (lung cancer) human tumor cell line; assay: MTS growth inhibition assay, NCI-H460; assay type: cell-based
Experimental: The agents PDX, PDX-10a, PDX-10b, were evaluated for growth inhibitory activity against, MDA-MB-435, SKBR-3 and NCI-H460 human tumor cell lines. Growth inhibition was measured by MTS assay following three hours of continuous treatment and a seventy-two hour recovery incubation. The purpose of these studies was to determine the cytotoxic activity of the compounds in the tumor cell lines studies studied.
Materials and Methods. Preparation of PDX-10a and PDX-10b was performed as discussed in Examples 1-2. The PDX compounds were diluted in dimethylsulfoxide (DMSO) at a concentration of 20 mM. From this solution a stock solution of 2 mM was made by dilution with phosphate-buffered saline (PBS). This 2 mM stock solution in 10% DMSO/90% PBS was used to make 2× concentrations of the titration series in cell growth medium which was added to the cell cultures in a 1:1 ratio to make 1× concentrations. Cell lines—The human tumor cell lines: MDA-MB-435 (melanoma), SKBR-3 (breast cancer) and NCI-H460 (lung cancer) were cultured in RPMI medium (RPMI; Nova Tech, Grand Island, N.Y.) containing ten percent dialyzed fetal bovine serum (FBS; Nova Tech). Once cells reached seventy percent confluency, they were trypsinized and resuspended in an alternate media (RPMI containing five percent dialyzed FBS (Hyclone, Logan, Utah). One day prior to treatment (Day 0), cultures were suspended at a concentration of 1−7.5×10^4 cell/ml and 100 μl aliquots were plated into each well of a 96-well microtiter plate at a final concentration of 1×10^3-7.5×10^3 cells/well. Cells were incubated for 24 hours at 37° C. prior to exposure with agents.
Test Agents—racemic PDX, and individual diastereomers PDX-10a and PDX-10b were prepared as described above. Cells were treated 24 hours after plating (Day 1) with vehicle (media) alone or the above test agents for three hours at concentrations between 3 μM and 10 μM.
Single Agent Pulse Studies—Treatment with test agents or standard agents (controls) was initiated 24 hours after plating cells (Day 1). Cells were incubated at 37° C. with each of the test agents or a “chemococktail” (positive control) consisting of 215 μM Etoposide, 20 μM Taxol, 38.5 nM Velcade at final concentration for three hours. Following treatment, drug was removed, growth media added, and cells incubated at 37° C. for 72 hours. Following incubation, the viable cell number was quantified by the MTS assay described below. Experiments were repeated twice at the same concentrations. Results from these studies were used to calculate an IC50 value (concentration of drug that inhibits cell growth by 50% of the vehicle) for each compound. IC50 values were generated with Prizm software.
MTS Assay—Cell viability was determined using the MTS assay. This colorimetric procedure measures conversion of the MTS reagent (a tetrazolium salt) to formazan by living cells. Formazan production was quantified by spectrophotometric measurement at 490 nm and is proportional to viable cell number. For these studies, cells were cultured and treated as listed above. At the end of the treatment, 20 μl MTS tetrazolium (1.9 mg/ml in PBS, pH 6.0) was added to the cells for 1 hour at 37° C. Absorbance (OD) values were measured using a Dynex HD microplate reader at a single wavelength of 490 nm.
Data Analysis—Data from each experiment was collected and expressed as OD490 versus the log10 of the test agent concentration. Using the statistical analysis package of the Prizm analytical software (GraphPad, San Diego, Calif.), a non-linear curve fit was performed which yielded the 50% inhibition concentration of the test article (IC50).

[4] = tested on: type II collagen arthritis; assay: Type II collagen arthritis rat model; assay type: in vivo; details: female Lewis rats, 0.075, 0.05 or 0.025 mg/kg qd; some / other components/aspects of the arthritis; Example 8
Experimental: Female Lewis rats with 17-day developing type II collagen arthritis are treated once daily (qd), orally or intravenously, on days 0-16 of the study with saline vehicle (qd), with Methotrexate (MTX, 0.075, 0.05, or 0.025 mg/kg), or racemic PDX, PDX-10a and PDX-10b (0.075, 0.05, or 0.025 mg/kg). Animals are terminated on study day 17. Efficacy evaluation is based on ankle caliper measurements, expressed as area under the curve (AUC), and terminal hind paw weights, and histopathologic evaluation of ankles and knees.

[5] = both sexes, 0.81 mg/kg, C1D1, calculated using average BW 85 kg, read-out: Vdss relative to BW
[6] = both sexes, 30 mg/m2, human, C1D1, 30 mg/m^2, range of the mean for males and females and for PDX-10a and PDX-10b, read-out: CLtot
[7] = both sexes, 30 mg/m2, human, C1D1, 30 mg/m^2, range of the mean for males and females and for PDX-10a and PDX-10b, read-out: Vdss
[8] = both sexes, 30 mg/m2, human, C1D1, 30 mg/m^2, range of the mean for males and females and for PDX-10a and PDX-10b
[9] = both sexes, 30 mg/m2, human, C1D6 or C2D6, 30 mg/m^2, range of the mean for males and females and for PDX-10a and PDX-10b, read-out: CLtot
[10] = both sexes, 30 mg/m2, human, C1D6 or C2D6, 30 mg/m^2, range of the mean for males and females and for PDX-10a and PDX-10b, read-out: Vdss
[11] = both sexes, 30 mg/m2, human, C1D6 or C2D6, 30 mg/m^2, range of the mean for males and females and for PDX-10a and PDX-10b
[12] = 0.81 mg/kg, C1D1, calculated using average BW 85 kg, read-out: CLtot relative to BW
[13] = Homo sapiens, NCI-H460, NCI-H460 (lung), 3 h treatment, 72 h recovery, MTS
[14] = Homo sapiens, NCI-H460, NCI-H460 repeat assay

Row | Vd [1, 5] [L/kg] | clearance [1, 6] [mL/min] | Vd [1, 7] [L] | half-life [1, 8] [h] | clearance [1, 9] [mL/min] | Vd [1, 10] [L] | half-life [1, 11] [h] | clearance [1, 12] [mL/min/kg] | pIC50 [3, 13] | pIC50 [3, 14] | pIC50 ([3]; NCI-H460 repeat assay) | higher plasma exposure compared with PDX-10a ([1]; humans) [fold] | lower volume of distribution at steady state (Vdss) compared with PDX-10a ([1]; humans) [fold] | nonrenal clearance (CLnonren) lower compared with PDX-10a ([1]; humans) | renal clearance (CLren) lower compared with PDX-10a ([1]; humans) | Compound | antiarthritic activity relative to racemate and other diastereomer [2] | antiarthritic activity relative to racemate and other diastereomer [4]
1 | 0.4 to 1.2 | 191 to 417 | 37 to 105 | 12 to 18 | 227 to 495 | 48 to 162 | 11 to 16 | 2 to 5 | 6.54 | 6.77 | 6.77 | – | – | – | – | C#CC[C@@H](Cc1cnc2nc(N)nc(N)c2n1)c1ccc(C(=O)N[C@@H](CCC(=O)O)C(=O)O)cc1 (single isomer, unassigned) [PDX-10a] | increased activity relative to racemic PDX and/or PDX-10b | increased activity relative to racemic PDX and/or PDX-10b
2 | 0.4 to 1.2 | 191 to 417 | 37 to 105 | 12 to 18 | 227 to 495 | 48 to 162 | 11 to 16 | 2 to 5 | 7.34 | 7.34 | – | 2 | ~2 | approximately 50% | approximately 50% | C#CC[C@H](Cc1cnc2nc(N)nc(N)c2n1)c1ccc(C(=O)N[C@@H](CCC(=O)O)C(=O)O)cc1 (single isomer, unassigned) [PDX-10b] | increased activity relative to racemic PDX and/or PDX-10a | increased activity relative to racemic PDX and/or PDX-10a
